Experimental data from PubChem BioAssay AID351 (ChemBlock, 2006).
Calls of active or inactive are those of the source.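 Rule for the calls: active = compounds that disrupt early egg division and make hatched embryos spin fast in place instead of swimming forward; inactive = the rest.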

Test system: not listed separately
Test: sea urchin embryo cleavage alteration, tubulin destabilizer project, whole organism, microscopy (AID 351)
Conditions: sea urchin embryo, cleavage alteration, microscopy
For `COc1ccc(-c2nc(Nc3nc(C)cc(C)n3)n[nH]2)cc1OC`, the outcome was “inactive; up to 10 µM”. For `COc1ccc(-c2csc(Nc3ccccc3OC)n2)cc1Br`, the outcome was “inactive; up to 5 mM”. With `O=C1c2c(O)cc(O)cc2OC(c2ccc(O)c(O)c2)C1O` (stereo not drawn) the outcome was “inactive; up to 50 µM”. In the case of `O=C(Nc1ccc(F)cc1)C(=O)c1cn(Cc2ccc(Cl)cc2)c2ccccc12`, the outcome is reported as “inactive; up to 5 mM”. With `CCN(CC)C(=O)C(=O)c1cn(Cc2ccc(F)cc2)c2ccccc12` the outcome was “inactive; up to 50 µM”. For `Nc1csnc1-c1nnc(Nc2ccc3c(c2)OCO3)o1`, the outcome was “inactive; up to 5 µM”. In the case of `O=c1c(O)c(-c2ccc(O)c(O)c2)oc2cc(O)cc(O)c12`, the outcome is reported as “inactive; up to 100 µM”. For `c1cc(-c2nc(-c3ccc4c(c3)OCO4)no2)ccn1`, the outcome was “inactive; up to 50 µM”. For `COc1ccc(C(=O)c2c(N)nc3n2CCC3)cc1OC`, the outcome was “inactive; up to 5 mM”. In the case of `CCOc1ccc(C2=C3c4cc(OCC)c(OCC)cc4CCN3C(=O)C2=O)cc1OCC`, the outcome is reported as “inactive; up to 50 µM”. In the case of `NC(=O)c1nscc1NCc1cccnc1`, the outcome is reported as “inactive; up to 50 µM”. For `COc1ccc(-c2oc(=O)oc2-c2ccc(OC)c(OC)c2)cc1OC`, the outcome was “inactive; up to 5 mM”. In the case of `COC(=O)c1ccccc1NC(=O)Cn1nnc(-c2ccc(OC)cc2)n1`, the outcome is reported as “inactive; up to 5 mM”. In the case of `COc1ccc(/C=C(/C(=O)O)c2cc(OC)c(OC)c(OC)c2)cc1O`, the outcome is reported as “inactive; up to 10 mM”. For `Brc1cccc(-c2n[nH]c(-c3[nH]ncc3NCc3ccc4c(c3)OCO4)n2)c1`, the outcome was “inactive; up to 5 mM”. In the case of `CCOc1cc(CNc2cccc3[nH]c(C)nc23)ccc1OC`, the outcome is reported as “inactive; up to 50 µM”. With `O=C(Nc1cccc(C(F)(F)F)c1)C(=O)c1cn(Cc2ccc(Cl)cc2)c2ccccc12` the outcome was “inactive; up to 5 mM”. For `Cc1onc(-c2ccccc2Cl)c1C(=O)Nc1cccnc1`, the outcome was “inactive; up to 50 µM”. For `COc1ccc(Cc2nc(-c3nonc3N)no2)cc1OC`, the outcome was “inactive; up to 100 mM”. With `Nc1nc2ccccc2cc1-c1nnc(Nc2ccc3c(c2)OCO3)o1` the outcome was “inactive; up to 2 mM”. In the case of `c1cncc(CNc2cn[nH]c2-c2nnc(Nc3ccc4c(c3)OCO4)o2)c1`, the outcome is reported as “inactive; up to 10 µM”. For `COC(=O)c1cc(=O)c(O)c2c(O)c(O)c(OC)cc2c1`, the outcome was “inactive; up to 20 mM”. With `COc1cc2ccnc(-c3c[nH]c4cc(OC)c(OC)cc34)c2cc1OC` the outcome was “inactive; up to 10 µM”. In the case of `c1cncc(CNc2cn[nH]c2-c2nnc(Nc3ccc4c(c3)OCCO4)o2)c1`, the outcome is reported as “inactive; up to 10 µM”. In the case of `Nc1cc2c(cc1C(=O)c1ccccc1)OCCO2`, the outcome is reported as “inactive; up to 5 mM”. With `COc1ccc2[nH]cc(CCN)c2c1` the outcome was “inactive; up to 50 µM”. In the case of `COc1ccc2[nH]cc(CCNC(C)=O)c2c1`, the outcome is reported as “inactive; up to 50 µM”. With `CC(=O)OC1C(=O)C2C(O)CC3OCC3(OC(C)=O)C2C(OC(=O)c2ccccc2)C2(O)CC(OC(=O)C(O)C(NCc3ccccc3)c3ccccc3)C(C)=C1C2(C)C` (stereo not drawn) the outcome was “inactive; up to 50 µM”. For `Brc1ccc(-c2n[nH]c(-c3[nH]ncc3NCc3ccncc3)n2)cc1`, the outcome was “inactive; up to 20 mM”. For `Cc1ccc(Nc2nc(-c3c(C)nc4ccccn34)cs2)c(C)c1`, the outcome was “inactive; up to 5 mM”. In the case of `COc1ccc2[nH]cc(CCNC(=O)C(F)(F)F)c2c1`, the outcome is reported as “inactive; up to 50 µM”. With `Nc1nonc1-c1cccnc1` the outcome was “inactive; up to 100 mM”. In the case of `NC(=O)c1nscc1NCc1ccncc1`, the outcome is reported as “inactive; up to 5 µM”. For `COc1ccc2[nH]c(C)c(CCN3C(=O)C4CCCCC4C3=O)c2c1` (stereo not drawn), the outcome was “inactive; up to 50 µM”. In the case of `COc1ccc2[nH]c(C)c(CCNC(=O)c3ccc(OC)c(OC)c3)c2c1`, the outcome is reported as “inactive; up to 50 µM”. In the case of `COc1cccc(NC(=O)C(=O)c2c[nH]c3ccccc23)c1`, the outcome is reported as “inactive; up to 5 mM”. With `CCOc1ccc(-c2cn[nH]c2N)cc1OCC` the outcome was “inactive; up to 40 mM”. For `COc1ccc(-c2nc(C)n3ccc4cc(OC)c(OC)cc4c23)cc1OC`, the outcome was “inactive; up to 10 µM”. For `O=C(Nc1ccc(Br)cc1)C(=O)c1cn(Cc2ccc(Cl)cc2)c2ccccc12`, the outcome was “inactive; up to 5 mM”. In the case of `COc1ccc(C2=NOC3C4COC(O4)C(=O)C23)cc1` (stereo not drawn), the outcome is reported as “inactive; up to 5 mM”. With `COc1ccc(Cc2nn[nH]n2)cc1OC` the outcome was “inactive; up to 50 µM”. With `NC(=O)C(=O)c1cn(Cc2ccc(F)cc2)c2ccccc12` the outcome was “inactive; up to 50 µM”. In the case of `COc1cc(OC)c2c(c1)OC(c1ccc(OC)c(OC)c1)C(O)C2=O` (stereo not drawn), the outcome is reported as “inactive; up to 10 µM”. For `NC(=O)C(=O)c1cn(Cc2ccc(Cl)cc2Cl)c2ccccc12`, the outcome was “inactive; up to 10 µM”. In the case of `Nc1nonc1-c1nc2ccccc2n1Cc1cccc(F)c1`, the outcome is reported as “inactive; up to 1 mM”. For `NC(=O)CCNCc1cccnc1`, the outcome was “inactive; up to 10 µM”. In the case of `COc1ccc2[nH]cc(CCN3C(=O)OC(C)(C)C3(C)O)c2c1` (stereo not drawn), the outcome is reported as “inactive; up to 10 µM”. With `COc1ccc(-c2nn[nH]n2)cc1OC` the outcome was “inactive; up to 100 µM”. In the case of `CCOc1cc2c(cc1OCC)C(c1cc(OC)c(OC)c(OC)c1)NCC2` (stereo not drawn), the outcome is reported as “inactive; up to 50 µM”. With `COc1cc(-c2nnc(Nc3ccc4c(c3)OCO4)o2)cc(OC)c1OC` the outcome was “inactive; up to 5 µM”. With `Nc1cn[nH]c1-c1nc(-c2ccc(C(F)(F)F)cc2)n[nH]1` the outcome was “inactive; up to 50 mM”. In the case of `O=C(Nc1ccc(C(F)(F)F)cc1)C(=O)c1cn(Cc2ccc(Cl)cc2)c2ccccc12`, the outcome is reported as “inactive; up to 0.5 µM”. With `Cc1nc2ccccn2c1-c1csc(Nc2ccc(Br)cc2Br)n1` the outcome was “inactive; up to 5 mM”. In the case of `Nc1[nH]ncc1-c1nnc(Nc2ccc3c(c2)OCO3)o1`, the outcome is reported as “inactive; up to 20 mM”. For `COc1ccc(Nc2nc(-c3ccc(OC)c(OC)c3)cs2)cc1`, the outcome was “inactive; up to 50 µM”. For `O=C(Nc1ccc(Cl)cc1)C(=O)c1cn(Cc2ccc(Cl)cc2)c2ccccc12`, the outcome was “inactive; up to 5 mM”. With `Cc1[nH]c2ccc(OC(F)(F)F)cc2c1CCNC(=O)Cc1ccc(Cl)cc1` the outcome was “inactive; up to 10 µM”. For `O=C(Nc1cccc(Cl)c1)C(=O)c1cn(Cc2ccc(Cl)cc2)c2ccccc12`, the outcome was “inactive; up to 5 mM”. For `O=C(Nc1cccc(C(F)(F)F)c1)c1nscc1NCc1ccc2c(c1)OCO2`, the outcome was “inactive; up to 5 µM”. With `COc1cc(C(=O)NCCc2c(C)[nH]c3ccc(OC(F)(F)F)cc23)cc(OC)c1OC` the outcome was “inactive; up to 50 µM”. With `COc1ccc(CNc2ccccc2-c2nn[nH]n2)cc1OC` the outcome was “inactive; up to 20 mM”. In the case of `O=C(Nc1cccnc1Cl)C(=O)c1cn(Cc2ccc(Cl)cc2)c2ccccc12`, the outcome is reported as “inactive; up to 2.5 mM”. In the case of `CC(=O)Nc1ccccc1-c1cc(C)c2ccccc2n1`, the outcome is reported as “inactive; up to 50 µM”. In the case of `c1cnc(-c2nc(-c3ccc4c(c3)OCO4)no2)cn1`, the outcome is reported as “inactive; up to 5 µM”. For `O=C(CC1(O)C(=O)N(Cc2ccc(F)cc2)c2ccccc21)c1ccc2c(c1)OCO2` (stereo not drawn), the outcome was “inactive; up to 2.5 µM”. With `O=C(Nc1ccc(OC(F)(F)F)cc1)C(=O)c1cn(Cc2ccc(Cl)cc2)c2ccccc12` the outcome was “inactive; up to 1 µM”. For `Clc1ccc(-c2[nH]c(-c3cccc(C#Cc4ccccc4)c3)nc2-c2ccccc2)cc1`, the outcome was “inactive; up to 5 mM”. With `Cn1cnc(NCc2cccnc2)c1-c1nnc(Nc2ccc3c(c2)OCCO3)o1` the outcome was “inactive; up to 2.5 µM”. In the case of `CCOc1cc2c(cc1OCC)C(c1cc(OC)c(O)c(OC)c1)NCC2` (stereo not drawn), the outcome is reported as “inactive; up to 50 µM”. For `Cc1[nH]c2ccc(OC(F)(F)F)cc2c1CCN1C(=O)C2CCCCC2C1=O` (stereo not drawn), the outcome was “inactive; up to 10 µM”. In the case of `COc1ccc2[nH]c(C(=O)O)c(CCNC(C)=O)c2c1`, the outcome is reported as “inactive; up to 50 µM”. In the case of `O=C(C(=O)c1ccc2c(c1)OCO2)c1ccc2c(c1)OCO2`, the outcome is reported as “inactive; up to 2 mM”. For `Nc1csnc1C(=O)Nc1cccc(C(F)(F)F)c1`, the outcome was “inactive; up to 5 µM”. In the case of `O=C(Nc1cccc(C(F)(F)F)c1)c1nscc1NCc1ccncc1`, the outcome is reported as “inactive; up to 1 µM”. With `COc1cc(N)c(C(O)c2nccc3cc(OC)c(OC)cc23)cc1OC` (stereo not drawn) the outcome was “inactive; up to 50 µM”. For `O=C(Nc1cccc(F)c1)C(=O)c1cn(Cc2ccc(Cl)cc2)c2ccccc12`, the outcome was “inactive; up to 5 mM”. In the case of `CS(=O)(=O)c1ccc(Nc2nnc(-c3ccccc3N)o2)cc1`, the outcome is reported as “inactive; up to 5 mM”. In the case of `COc1cc(-c2nc(-c3ccncc3)no2)cc(OC)c1OC`, the outcome is reported as “inactive; up to 10 µM”.

Test system: sea urchin embryo, cleavage alteration, microscopy
Test: as above
Conditions: not given
`O=C1c2cccc(O)c2C(=O)c2c(O)cc(CO)cc21` gave a threshold concentration of 20000 nM. In the case of `O=C(Nc1ccncc1)C(=O)c1cn(Cc2ccc(Cl)cc2)c2ccccc12`, the threshold concentration is reported as 10 nM. Work on `Nc1cn[nH]c1-c1nc(-c2cccc(F)c2)n[nH]1` yielded a threshold concentration of 500 nM. `c1cncc(CNc2ccccc2-c2nnc(Nc3ccc4c(c3)OCO4)o2)c1` gave a threshold concentration of 1 nM. In the case of `COc1cc(N)c(-c2nnc(Nc3ccc4c(c3)OCO4)o2)c(OC)c1`, the threshold concentration is reported as 50 nM. In the case of `COc1cc2c(cc1O)CCC1C2CCC2(C)C(O)CCC12` (stereo not drawn), the threshold concentration is reported as 200 nM. In the case of `Cc1nc2ncccn2c1-c1csc(Nc2ccc(Cl)cc2)n1`, the threshold concentration is reported as 100 nM. In the case of `Cc1nc2sccn2c1-c1csc(Nc2ccc(Cl)cc2)n1`, the threshold concentration is reported as 100 nM. With `COc1ccc(-c2nnc(Nc3ccc4c(c3)OCCO4)o2)c(N)c1` the threshold concentration was 25 nM. `c1ccc(-c2nnc(Nc3ccc4c(c3)OCCO4)o2)c(NCc2ccns2)c1` gave a threshold concentration of 2000 nM. With `COc1ccc(C2=N[C@H](c3ccc(OC)cc3)[C@H](c3ccc(OC)cc3)N2)cc1` the threshold concentration was 500 nM. For `Nc1cc2c(cc1-c1nnc(Nc3ccc4c(c3)OCO4)o1)OCO2`, the threshold concentration was 50 nM. `Nc1c(C(=O)c2ccccc2)sc2nc3c(cc12)CCCC3` showed a threshold concentration of 20 nM. `Nc1ccccc1-c1nnc(Nc2ccc3c(c2)OCCO3)o1` showed a threshold concentration of 1 nM. With `O=C(Nc1ccc2c(c1)OCO2)C(=O)c1cn(Cc2ccc(Cl)cc2)c2ccccc12` the threshold concentration was 50 nM. With `CCC1=CCN2CCC34c5cc(C6(C(=O)OC)CC7CN(CCc8c6[nH]c6ccccc86)CC(O)(CC)C7)c(OC)cc5N(C)C3C(O)(C(=O)OC)C(OC(C)=O)C1C24` (stereo not drawn) the threshold concentration was 200 nM. Molecule `COc1cccc(NC(=O)C(=O)c2cn(Cc3ccc(Cl)cc3)c3ccccc23)c1` has a threshold concentration of 4000 nM. With `Cc1cc(NC(=O)C(=O)c2cn(Cc3ccc(Cl)cc3)c3ccccc23)no1` the threshold concentration was 10 nM. In the case of `O=C(Nc1ccc2c(c1)OCCO2)C(=O)c1c[nH]c2ccccc12`, the threshold concentration is reported as 2 nM. `COc1ccc(-c2c(-c3ccccc3)noc2N)cc1OC` gave a threshold concentration of 500 nM.
